Experimental data as given in patent publication US20260308108A1, “COMPOSITIONS AND METHODS FOR THE TREATMENT OF OCULAR DISORDERS” (Case Western Reserve University, priority 2023, published 2026).
Several values for one entry are separate records, joined by “and”; a condition that tells them apart may be missing. Identical values can stand only once. Entries after “also recorded” stand apart in the source; their conditions may differ. Like-named read-outs stand apart in the source and are kept apart here.

Key:
RPE65 [1] = target: RPE65 (Bos taurus, UniProt Q28175); assay: RPE65 activity assay in vitro (11-cis-retinol production by bovine RPE microsomes); conditions: for RPE65 inhibition (in words): in vitro
Sequence of RPE65 (Bos taurus, UniProt Q28175) (Q28175 whole entry): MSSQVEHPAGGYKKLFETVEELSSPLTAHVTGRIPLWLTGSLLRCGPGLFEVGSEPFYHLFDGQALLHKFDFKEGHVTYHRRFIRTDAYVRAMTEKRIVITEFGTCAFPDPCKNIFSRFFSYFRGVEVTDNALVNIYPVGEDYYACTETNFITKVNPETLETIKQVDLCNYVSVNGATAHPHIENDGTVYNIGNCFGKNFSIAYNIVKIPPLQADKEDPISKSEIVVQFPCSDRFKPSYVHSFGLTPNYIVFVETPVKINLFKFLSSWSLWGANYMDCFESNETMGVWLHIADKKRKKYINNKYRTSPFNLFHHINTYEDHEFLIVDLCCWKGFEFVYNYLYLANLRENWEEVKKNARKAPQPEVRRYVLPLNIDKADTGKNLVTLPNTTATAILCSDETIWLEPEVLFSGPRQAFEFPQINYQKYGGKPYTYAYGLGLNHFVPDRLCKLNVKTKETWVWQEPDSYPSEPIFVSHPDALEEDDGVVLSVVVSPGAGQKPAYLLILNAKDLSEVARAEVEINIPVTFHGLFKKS

[2] = Observation of animals after treatment (toxicity); type: in vivo, BALB/cJ mice; conditions: 10 mg/kg IP; even 24 h after treatment
Text: Vehicle-only and nontreated animals served as controls. […] Three animals were used for each time point.

RPE65 [3] = conditions: 10 mg/kg IP; for 11cRAL / RE: mean ± SD, n = 3 mice
[4] = tested on: mouse liver microsomes (CYP-450 enzymes)
VAP-1 [5] = target: T1, VAP-1 (Mus musculus, UniProt O70423); assay: VAP-1 oxidation assay (mouse aorta homogenates); conditions: role: substrate; for ACU-5201 (deaminated product) formed / concentration of tested compound in mouse aorta homogenate: 100 μM, mean ± SD, n = 3
T1 sequence (O70423 1-765): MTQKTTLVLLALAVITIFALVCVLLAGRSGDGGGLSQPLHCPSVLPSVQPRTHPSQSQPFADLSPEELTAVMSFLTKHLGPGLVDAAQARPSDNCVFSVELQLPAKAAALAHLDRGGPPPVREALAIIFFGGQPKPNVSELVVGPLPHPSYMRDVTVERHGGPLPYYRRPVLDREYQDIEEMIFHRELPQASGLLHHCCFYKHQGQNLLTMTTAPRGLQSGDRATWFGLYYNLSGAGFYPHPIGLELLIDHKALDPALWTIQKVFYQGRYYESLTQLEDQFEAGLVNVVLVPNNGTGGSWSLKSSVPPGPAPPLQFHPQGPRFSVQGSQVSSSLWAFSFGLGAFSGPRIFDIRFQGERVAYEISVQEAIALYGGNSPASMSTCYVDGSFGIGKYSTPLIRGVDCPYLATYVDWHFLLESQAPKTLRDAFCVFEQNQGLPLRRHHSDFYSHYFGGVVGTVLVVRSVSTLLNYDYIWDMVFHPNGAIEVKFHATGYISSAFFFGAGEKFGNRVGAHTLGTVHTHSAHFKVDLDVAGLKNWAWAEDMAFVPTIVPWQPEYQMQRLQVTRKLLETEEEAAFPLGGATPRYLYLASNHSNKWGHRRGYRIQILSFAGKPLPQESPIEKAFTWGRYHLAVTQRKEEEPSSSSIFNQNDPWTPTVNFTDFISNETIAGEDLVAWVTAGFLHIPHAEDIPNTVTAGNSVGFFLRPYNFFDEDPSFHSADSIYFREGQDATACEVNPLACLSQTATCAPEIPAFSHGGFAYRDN

in vitro = conditions: mouse, microsomes
RPE65 [6] = conditions: among first targeted inhibitors (amine derivatives of retinol); cited from earlier work
VAP-1 [7] = conditions: role: substrate; cited from earlier work
[8] = read-out: IC50 ± SD, bovine RPE microsomes, mean ± SD, n = 3
[9] = bovine RPE microsomes, mean ± SD, n = 3

Compound: CC(CN)c1cccc(OCC2CCCCC2)c1 (stereo not shown) [Compound 11c, 2-(3-(Cyclohexylmethoxy)phenyl)propan-1-amine]
- RPE65 inhibition (in words) (RPE65 [1]): weaker inhibition; also recorded: the lowest level of inhibition
- IC50 (RPE65 [1]; [8]): 6730 ± 260 nM

Compound: CC(CCN)c1cccc(OCC2CCCCC2)c1 (stereo not shown) [Compound 16b, 3-(3-(Cyclohexylmethoxy)phenyl)butan-1-amine]
- toxicity observed in treated animals [2]: all animals showed impaired body movement even 24 h after treatment
- RPE65 inhibition (in words) (RPE65 [1]): the lowest level of inhibition
- IC50 (RPE65 [1]; [8]): 820 ± 500 nM
- decrease in inhibition of RPE65 relative to 3a (RPE65 [1]): 4 fold
- potency relative to 16a (RPE65 [1]; relative to 16a): roughly doubled
- RPE65 inhibition in vivo (in words) (RPE65 [3]): minor RPE65 inhibition 4 h after treatment, but animals were fully dark-adapted after 24 h
- 11cRAL (RPE65 [3]; 0 h after light exposure): 25.6 ± 2.7 pmol/eye
- RE (RPE65 [3]; 0 h after light exposure): 291.5 ± 33.1 pmol/eye
- 11cRAL (RPE65 [3]; 4 h): 94.4 ± 11.4 pmol/eye
- RE (RPE65 [3]; 4 h): 435.5 ± 27.5 pmol/eye
- 11cRAL (RPE65 [3]; 24 h): 370.5 ± 9.1 pmol/eye
- RE (RPE65 [3]; 24 h): 123.9 ± 36.4 pmol/eye

Compound: CNCCC(O)c1cccc(OCC2CCCCC2)c1 (stereo not shown) [Compound 16e, 1-(3-(Cyclohexylmethoxy)phenyl)-3-(methylamino)propan-1-ol]
- Km [4]: 39 µM
- 16e level in eye (after single IP of 3a, 1 h): 0.000 pmol/eye
- 16e level in serum (after single IP of 3a, 1 h): 0.00 pmol/mL serum
- levels in eye and plasma (in words) (after single IP of 16e (10 mg/kg)): decreased significantly at 4 h and approached baseline levels in both eye and plasma at 24 h after injection
- 16e level in serum (after single IP of 16e, 24 h): 0.000 pmol/mL serum
- concentration (read-out: 16e level in serum, after single IP of 16e, 4 h, 10 mg/kg): 0.111 µM
- 11cRAL (RPE65 [3]; 0 h after light exposure): 13.8 ± 1.5 pmol/eye
- RE (RPE65 [3]; 0 h after light exposure): 296.6 ± 65.2 pmol/eye
- 11cRAL (RPE65 [3]; 4 h): 22.5 ± 4.5 pmol/eye
- RE (RPE65 [3]; 4 h): 393.5 ± 60.0 pmol/eye
- level of 11cRAL as percent of the dark-adapted level (RPE65 [3]; 24 h): 53%
- 11cRAL (RPE65 [3]; 24 h): 201.8±53.2 pmol/eye
- RE (RPE65 [3]; 24 h): 215.4±99.2 pmol/eye and 213.4 ± 99.2 pmol/eye
- VAP-1 oxidative metabolism (in words) (VAP-1 [5]): resistant to VAP-1 oxidative deamination
- ACU-5201 (deaminated product) formed (VAP-1 [5]; 0 h): 0.00 ± 0.00 µM
- concentration of tested compound in mouse aorta homogenate (VAP-1 [5]; 0 h): 100.32 ± 0.95 µM
- ACU-5201 (deaminated product) formed (VAP-1 [5]; 1 h): 0.48 ± 0.68 µM
- concentration of tested compound in mouse aorta homogenate (VAP-1 [5]; 1 h): 101.20 ± 0.89 µM
- ACU-5201 (deaminated product) formed (VAP-1 [5]; 4 h): 3.76 ± 0.29 µM
- concentration of tested compound in mouse aorta homogenate (VAP-1 [5]; 4 h): 89.07 ± 0.49 µM
- reduction of the formation of ACU-5201 (VAP-1 [5]; 1 h): about 99.5%
- reduction of the formation of ACU-5201 (VAP-1 [5]; 4 h): ~96.25%
- Km (in vitro): 39 µM

Compound: NC(CO)Cc1ccc(OCC2CCCCC2)cc1 (stereo not shown) [Compound 6c, 2-Amino-3-(4-(cyclohexylmethoxy)phenyl)propan-1-ol]
- IC50 ± SD (RPE65 [1]; [9]): No Inhibition
- RPE65 inhibition (in words) (RPE65 [1]): lack of dose-response relationship

Compound: NCCCc1cccc(OCC2CCCCC2)c1 [Compound 16a]
- IC50 (RPE65 [1]; [8]): 1550 ± 300 nM
- decrease in inhibition of RPE65 relative to 3a (RPE65 [1]): 8 fold

Compound: CC(CN)Cc1cccc(OCC2CCCCC2)c1 (stereo not shown) [Compound 16c]
- IC50 (RPE65 [1]): 590 ± 70 nM
- 11cRAL (RPE65 [3]; 0 h after light exposure): 17.4 ± 0.8 pmol/eye
- RE (RPE65 [3]; 0 h after light exposure): 253.5 ± 22.5 pmol/eye
- 11cRAL (RPE65 [3]; 4 h): 323.0 ± 5.1 pmol/eye
- RE (RPE65 [3]; 4 h): 111.9 ± 18.5 pmol/eye
- 11cRAL (RPE65 [3]; 24 h): 253.5 ± 9.0 pmol/eye
- RE (RPE65 [3]; 24 h): 85.6 ± 12.7 pmol/eye

Compound: NCCc1ccc(F)c(OCC2CCCCC2)c1 [Compound 11d, 2-(3-(Cyclohexylmethoxy)-4-fluorophenyl)ethan-1-amine]
- IC50 (RPE65 [1]; [8]): 1230 ± 130 nM
- decrease in RPE65 inhibition relative to 11b (RPE65 [1]; relative to 11b): 3 fold

Compound: NC(CO)Cc1cccc(OCC2CCCCC2)c1 (stereo not shown) [Compound 6b, 2-Amino-3-(3-(cyclohexylmethoxy)phenyl)propan-1-ol]
- IC50 ± SD (RPE65 [1]; [9]): No Inhibition
- RPE65 inhibition (in words) (RPE65 [1]): no inhibition in vitro

Compound: CC1=C(/C=C/C(C)=C/C=C/C(C)=C/CN)C(C)(C)CCC1 [retinylamine]
- potency as RPE65 inhibitor (in words) (RPE65 [6]): the most potent among them

Compound: CC(CN)Cc1ccc(F)c(OCC2CCCCC2)c1 (stereo not shown) [Compound 16d, 3-(3-(Cyclohexylmethoxy)-4-fluorophenyl)-2-methylpropan-1-amine]
- IC50 ± SD (RPE65 [1]; [9]): No Inhibition
- RPE65 inhibition (in words) (RPE65 [1]): inactive
- 11cRAL (RPE65 [3]; 0 h after light exposure): 23.5 ± 2.3 pmol/eye
- RE (RPE65 [3]; 0 h after light exposure): 259.9 ± 54.6 pmol/eye
- 11cRAL (RPE65 [3]; 4 h): 398.0±26.6 pmol/eye and 413.2 ± 8.1 pmol/eye
- RE (RPE65 [3]; 4 h): 101.1 ± 12.9 pmol/eye
- 11cRAL (RPE65 [3]; 24 h): 398.0 ± 26.6 pmol/eye
- RE (RPE65 [3]; 24 h): 122.7 ± 30.6 pmol/eye

Compound: COc1cc(NC(C)CCCN)c2ncccc2c1 (stereo not shown) [primaquine]
- VAP-1 metabolism (in words) (VAP-1 [7]): shown important

Compound: NCCC(O)c1ccc(OCC2CCCCC2)cc1 (stereo not shown) [Compound 3b, 3-Amino-1-(4-(cyclohexylmethoxy)phenyl)propan-1-ol]
- IC50 (RPE65 [1]): 8980 ± 3440 nM

Compound: NC(CCO)c1cccc(OCC2CCCCC2)c1 (stereo not shown) [Compound 6a, 3-Amino-3-(3-(cyclohexylmethoxy)phenyl)propan-1-ol]
- IC50 ± SD (RPE65 [1]; [9]): No Inhibition
- RPE65 inhibition (in words) (RPE65 [1]): lack of inhibitory activity; also recorded: no inhibition in vitro

Compound: N=C(N)NCCCCCCNC(=O)COC(=O)NCCCCNCCCN [tresperimus]
- VAP-1 metabolism (in words) (VAP-1 [7]): shown important

Compound: NCCC(O)c1ccccc1OCC1CCCCC1 (stereo not shown) [Compound 3c, 3-Amino-1-(2-(cyclohexylmethoxy)phenyl)propan-1-ol]
- IC50 (RPE65 [1]; [8]): 4670 ± 1230 nM

Compound: NCCc1cccc(OCC2CCCCC2)c1 [Compound 11b, 2-(3-(Cyclohexylmethoxy)phenyl)ethan-1-amine]
- IC50 (RPE65 [1]; bovine RPE microsomes): 420 ± 110 nM
- more potent activity toward RPE65 relative to amine 11a (RPE65 [1]; relative to 11a): 7.6 times
- RPE65 inhibition in vivo (in words) (RPE65 [3]): did not display hallmarks of inhibited RPE65 activity in vivo
- 11cRAL (RPE65 [3]; 0 h after light exposure): 16.2 ± 16.2 pmol/eye
- RE (RPE65 [3]; 0 h after light exposure): 225.1 ± 29.5 pmol/eye
- 11cRAL (RPE65 [3]; 24 h): 137.4 ± 44.5 pmol/eye
- RE (RPE65 [3]; 24 h): 377.3 ± 54.4 pmol/eye

Compound: NCC(O)c1cccc(OCC2CCCCC2)c1 (stereo not shown) [Compound 11a]
- RPE65 inhibition (in words) (RPE65 [1]): substantially less potent than 3a
- IC50 (RPE65 [1]; [8]): 3190 ± 810 nM
